Reference: patent US9878054B2, “Polypeptide and lipophilic moiety conjugate compositions, formulations, and uses related thereto” (Tufts Medical Center, Inc., priority 2012, dated 2018)

Legend:
[1] = test system: human platelets (thrombin); test: Thrombin-induced aggregation of human platelets; format: cell-based; conditions: 3 μM compound
Method: A, Depiction of the mechanism of action of the cell-penetrating PZ-128 pepducin compound targeting the third intracellular loop (red) of PAR1. B, The NMR structure of PZ-128 was determined by simulated annealing methods using 210 distance restraints and included restraints to the proximal 3 hydrocarbons of the lipid. […] D, PZ-128 inhibits PAR1-dependent platelet aggregation. Gel filtered human platelets were treated with various concentrations of PZ-128 and then challenged with the PAR1 agonist SFLLRN (2.5 μM), 20 μM ADP, 200 μM AYPGKF or 1 mg/ml Ristocetin. E, Human platelets were treated with 3 μM PZ-128, 3 μM RWJ-56110, or 5% dextrose vehicle before the addition of various concentrations of thrombin (n=3-5).
PZ-128 also markedly right-shifted thrombin-induced aggregation by 5-fold. By comparison, the small molecule RWJ-56110 which antagonizes PAR1 at the extracellular ligand-binding site gave a 2-fold right shift in the thrombin activation curve of human platelets.
Whole blood from healthy donors was collected into a 30 ml syringe containing sodium citrate (0.4% vol/vol final). Platelets were isolated from platelet rich plasma (PRP) using Sepharose 2B columns in modified PIPES buffer.

human whole blood = test: Activated clotting time (ACT) of blood from PCI patients; conditions: iv 0.75 mg/kg bolus then 1.75 mg/kg/hr, 30 min
Method: PZ-128 (χ) was spiked at various concentrations (0-150 μM) into fresh whole blood obtained from patients just prior to PCI. By comparison, blood was obtained at the 30 min time point from PCI patients (n=22) after a weight-adjusted dosage of bivalirudin (•) administered intravenously as a 0.75 mg/kg bolus followed by continuous infusion of 1.75 mg/kg/hr during the procedure. ACT assays were performed immediately using a Hemochron 801 with FTCA510-4 ACT cartridges containing silica, phospholipids, and diatomaceous earth (kaolin). The open circle represents the mean (±SD) ACT and mean bivalirudin concentration at the 30 min time point in the 22 PCI patients.
The effects of PZ-128 micelles were measured on activated clotting time (ACT) in human blood samples freshly obtained from adult patients undergoing PCI. At concentrations of PZ-128 up to 150 μM, there were no effects on ACT in the human PCI blood samples (FIG. 5).
Adult outpatients with angina referred for coronary angiography or PCI were enrolled in the Tufts Medical Center Adult Cardiac Catheterization Laboratory. Blood was collected prior to PCI or angiography and PZ-128 micelles were spiked into 1 ml samples of whole blood at a range of final concentrations (0-150 μmol/L). ACT was measured immediately in duplicate. […] Bivalirudin concentrations in plasma were measured by LC/MS/MS.

[2] = test system: guinea pig carotid artery thrombosis; test: Guinea pig carotid artery FeCl3 injury arterial thrombosis model; format: in vivo; conditions: sub-therapeutic dose alone (PZ-128 0.05 mg/kg; clopidogrel 1 mg/kg PO)
Method: A carotid artery FeCl3 injury model was used in guinea pigs to assess the anti-thrombotic efficacy of PZ-128 micelles within 15 min of initiation of drug administration. FeCl3 denudes the artery and exposes type I collagen and other subendothelial matrix proteins to initiate platelet-dependent thrombosis. Guinea pigs received 10 min intravenous infusions of PZ-128 micelles, 5 min prior to carotid artery injury. […] Mean occlusion times increased by 4-fold to 40 min at doses above 0.05 mg/kg PZ-128.
Male Hartley guinea pigs (150˜220 g) were purchased from Charles River Laboratories. A 0.61 mm-diameter catheter was inserted into the left jugular vein of anesthetized animals for administration of infusions of 5% USP dextrose vehicle or PZ-128 micelles. A 0.5 V-Doppler probe (Transonic Systems, Ithaca, N.Y.) was placed around the right carotid artery to record blood flow. A range of doses of PZ-128 micelles from 0.05 to 1.6 mg/kg in 0.9 ml volumes were delivered at an injection rate of 0.09 ml/min by a Harvard syringe pump. Five minutes after the infusion ended, arterial thrombosis was induced by placing a 5×5 mm^2 piece of filter paper soaked in freshly made 20% FeCl3 solution on the right carotid artery 5 mm distal to the probe for 20 minutes. […] To examine possible synergistic effects of PZ-128 micelles and P2Y12-ADP receptor inhibition, 1 mg/kg clopidogrel was administered by oral gavage 4 hours prior to FeCl3 injury. In these synergy experiments, the maximum endpoint was set at 90 minutes for occlusion time.

[3] = cited from earlier work
PAR1 = conditions: read-out: EC50, activation of guinea pig platelets; PRP from vehicle-treated guinea pigs

With NCC[C@H](NC(=O)[C@H](Cc1ccc(F)c(F)c1)NC(=O)Nc1ccc2c(CN3CCCC3)cn(Cc3c(Cl)cccc3Cl)c2c1)C(=O)NCc1ccccc1 [RWJ-56110, reference compound] the “Right shift of thrombin-induced aggregation curve” value [1] was 2 fold.

For CC[C@H](C)[C@H](NC(=O)[C@H](CCC(=O)O)NC(=O)[C@H](CCC(=O)O)NC(=O)[C@H](Cc1ccccc1)NC(=O)[C@H](CC(=O)O)NC(=O)CNC(=O)[C@H](CC(N)=O)NC(=O)CNC(=O)CNC(=O)CNC(=O)CNC(=O)[C@@H]1CCCN1C(=O)[C@H](CCCNC(=N)N)NC(=O)[C@@H]1CCCN1C(=O)[C@H](N)Cc1ccccc1)C(=O)N1CCC[C@H]1C(=O)N[C@@H](CCC(=O)O)C(=O)N[C@@H](CCC(=O)O)C(=O)N[C@@H](Cc1ccc(O)cc1)C(=O)N[C@@H](CC(C)C)C(=O)O [bivalirudin], the “Activated clotting time (ACT)” value (human whole blood) was “highly elevated”.

With COC(=O)[C@H](c1ccccc1Cl)N1CCc2sccc2C1 [clopidogrel, reference compound] the “Protection against arterial occlusion when used alone” value [2] was “non-significant protection”.

For CCOC(=O)N[C@@H]1CC[C@@H]2[C@@H](C1)C[C@H]1C(=O)O[C@H](C)[C@H]1[C@H]2/C=C/c1ccc(-c2cccc(F)c2)cn1 [vorapaxar], the “Pharmacodynamic (PD) half-life” value ([3]; oral administration) is given as “up to 3 weeks” and the Plasma half-life ([3]; single loading dose) is given as 120 to 264 h.

Compound SFLLRN has an EC50 (PAR1) of 2500 nM.
